The target in this experiment is hTREM2 (Homo sapiens, UniProt Q9NZC2). Description: TREM2 activity by cellular Syk phosphorylation (AlphaScreen/AlphaLISA) in TREM2/DAP12-HEK cells, used for Examples 1-305. To be noted: HEK293 Cells. On the set-up: expressed in transfected cells. The class given is cell-based. From the text:
In vitro Measurement of Triggering Receptor Expressed on Myeloid Cells 2 activity using cellular phosphorylation of Spleen Tyrosine Kinase (“Syk”) Assays used for Examples 1-305
Pharmacological measurements of TREM2 signaling through DAP12 were made with TREM2 and DAP12 overexpressing HEK293 cells stable cell lines that had been single-cell cloned (“TREM2/DAP12-HEK”). The readout of the TREM2 signaling utilized Perkin Elmer AlphaScreen/AlphaLISA technology monitoring the phosphorylation levels of the Syk kinase. TREM2/DAP12-HEK cell lines were cultured in DMEM-F12 (Corning 10-092-CM) supplemented with 1X Penicillin/Streptomycin (Corning 30-002-CI), 1X GlutaMAX (Gibco 35050-061), and 10% Fetal Bovine Serum (Life Technologies 10099) referred to as “HEK Culture Medium”. Suspensions of TREM2/DAP12-HEK cells were prepared in HEK Culture Medium and dispensed into 384-well poly-D-lysine coated microplates (Corning 354661) at a density of 20,000 cells/well using a Multidrop Combi peristaltic microplate dispenser (Thermo), 25 μL volume of cell suspension/well. Plates containing cells were then incubated for 20 hours in a humidified cell culture incubator at 37° C. with 5% CO2 (Thermo). After incubation, culture medium was removed from all wells of each microplate and replaced with 20 μL of “Assay Buffer” comprised of DMEM-F12 (Corning 10-092-CM) supplemented with 1X Penicillin/Streptomycin (Corning 30-002-CI) and 0.1% Pluronic F-68 Polyol (MP Biomedical 092750049) using a Bravo 384-well pipette-based liquid handling system (Agilent). Assay Buffer contained diluted test articles (in 1% final DMSO concentration for compounds) or 100 nM anti-human/mouse TREM2 antibody (R&D Systems MAB17291) as a positive control, or 100 nM or rat IgG2B isotype Ab as a negative control (R&D Systems MAB0061). The plates were incubated with test articles and controls for 45 minutes at room temperature and then the medium was aspirated/removed from each well of the plates. A Multidrop Combi peristaltic liquid handler (Thermo) was used to dispense 15 μL/well of “Cell Lysis Immunoassay Buffer”. The Cell Lysis Immunoassay Buffer contained M-PER Mammalian Protein Extraction Reagent (Pierce/ThermoFisher 78505), 1X Halt Phosphatase Inhibitor Cocktail (ThermoFisher #78427), 0.1875 nM anti-phospho-Syk (Tyr525/526) (C87C1) rabbit mAb (Cell Signaling Technologies catalog #2710), and 1.5 nM biotinylated Mouse anti-human Syk (4D10) antibody (BD Biosciences, catalog #624008). Plates were incubated for 1 hour at room temperature after the addition of the Cell Lysis Immunoassay Buffer. The Multidrop Combi liquid handler was used to dispense 15 μL of AlphaScreen Acceptor Bead Solution containing 7.5 μg/mL anti-rabbit IgG (Fc specific) AlphaLISA Acceptor Beads (Perkin Elmer AL104R) in 1X Immunoassay buffer (Perkin Elmer AL000F) to each well of the microplates. The plates were incubated for 2 hours at room temperature. Following the incubation with the AlphaLISA Acceptor Bead Solution, a Multidrop Combi liquid handler (Thermo) was used to dispense 15 μL of AlphaScreen Donor Bead Solution containing 30 μg/mL of AlphaScreen Streptavidin Donor beads (Perkin Elmer 6760002B) in 1X Immunoassay buffer (Perkin Elmer AL000F) to each well of the microplates. Microplates were incubated for 2 hours protected from light sources as the AlphaScreen reagents are light sensitive. Once the final incubation was completed, an AlphaScreen signal was acquired from the donor and acceptor beads using an Envision high throughput multi-modal microplate reader (Perkin Elmer) calibrated to the plate type with the AlphaScreen mirror and filter-set in 384-well mode, 680 nanometer excitation wavelength. The total measurement time per well was 550 milliseconds with a 180 millisecond excitation time. […]
Background: In Alpha technology, singlet oxygen from a donor bead excites a nearby acceptor bead.

Where only a bound is given, the exact number is not on record here.

In general, EC50 refers to the concentration giving half of the maximal effect. The low end stands for an effect from little substance, the high end for a need for much substance.

hTREM2, sequence (Q9NZC2 19-230): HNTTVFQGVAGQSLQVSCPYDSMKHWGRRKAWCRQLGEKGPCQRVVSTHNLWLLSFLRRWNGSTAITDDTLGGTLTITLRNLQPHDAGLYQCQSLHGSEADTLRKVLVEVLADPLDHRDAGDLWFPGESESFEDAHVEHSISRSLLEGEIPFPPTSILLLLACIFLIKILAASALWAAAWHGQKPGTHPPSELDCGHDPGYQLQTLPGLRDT
hTREM2, sequence (O43914 22-113 partner): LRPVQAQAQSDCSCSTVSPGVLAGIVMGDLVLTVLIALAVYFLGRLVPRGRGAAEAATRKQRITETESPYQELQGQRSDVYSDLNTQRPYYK

For `Cc1cc([C@H]2CN(c3nc4nc(C)c(C)cc4c([C@H]4C[C@H](C(F)(F)F)C4)n3)CCO2)cnn1` (single isomer, unassigned) [Example 114], the EC50 was ≤ 50 nM; the “hTREM2 Emax” value is “+++ (Emax>150 and ≤250)”.

For the compound `Cc1nc2nc([C@H]3CCO[C@H](c4cnn(C)c4)C3)cc(-c3ccc(Cl)cc3F)c2nc1C` (single isomer, unassigned) [Example 186], the 50% effective concentration (EC50) was 500 to 3000 nM; the “hTREM2 Emax” value is “+++ (Emax>150 and ≤250)”.

Regarding `Cc1cc([C@H]2CN(c3nc(-c4ccc(Cl)cc4F)c4ncc(C)nc4n3)CCO2)ccn1` [Example 3, 4-(4-chloro-2-fluorophenyl)-7-methyl-2-((2S)-2-(2-methyl-4-pyridinyl)-4-morpholinyl)pteridine], the EC50 was ≤ 50 nM; the “hTREM2 Emax” value is “+++ (Emax>150 and ≤250)”.

Take `Cc1nc2nc(N3CCO[C@@H](c4cnn(C)c4)C3)nc(N3CC(C(F)(F)F)C3)c2nc1C` [Example 30, 6,7-dimethyl-2-((2S)-2-(1-methyl-1H-pyrazol-4-yl)-4-morpholinyl)-4-(3-(trifluoromethyl)-1-azetidinyl)pteridine]: the EC50 was in the range of 500 to 3000 nM; the “hTREM2 Emax” value is “++ (Emax>100 and ≤150)”.

On to `Cc1ncc([C@@H]2CN(c3nc(-c4ccc(Cl)cc4F)c4cc(C)c(C)nc4n3)CCO2)cn1` (single isomer, unassigned) [Example 106], for which the EC50 is 50 to 500 nM; the “hTREM2 Emax” value was “+++ (Emax>150 and ≤250)”.

For the compound `Cc1cnc2c(n1)nc(N1CCO[C@@H](c3cnn(C)c3)C1)nc2[C@H]1C[C@@H](C(F)(F)F)C1` [Example 274, (S)-2-(1-methyl-1H-pyrazol-4-yl)-4-(7-methyl-4-((1s,3R)-3-(trifluoromethyl)cyclobutyl)pteridin-2-yl)morpholine], the 50% effective concentration (EC50) was 3000 to 100000 nM; the “hTREM2 Emax” value was “++ (Emax>100 and ≤150)”.

Consider `Cc1nc2cc([C@H]3C[C@@H](C)O[C@@H](c4cnn(C)c4)C3)nc(-c3ccc(Cl)cc3F)c2nc1C` (single isomer, unassigned) [Example 230], for which the EC50 lay in the range of 50 to 500 nM and the “hTREM2 Emax” value is on record as “++++ (Emax>250)”.

For the compound `Cc1cc([C@@H]2C[C@H](c3nc(-c4ccc(F)cc4F)c4nc(C)c(C)nc4n3)CCO2)ccn1` [Example 252, 4-(2,4-difluorophenyl)-6,7-dimethyl-2-((2S,4R)-2-(2-methylpyridin-4-yl)tetrahydro-2H-pyran-4-yl)pteridine], the EC50 is ≤ 50 nM; the “hTREM2 Emax” value was “+++ (Emax>150 and ≤250)”.

In the case of `Cc1nc2nc(N3CCO[C@@H](c4cnn(C5CC5)c4)C3)nc(C3CCC(F)(F)CC3)c2nc1C` [Example 138, 2-((2S)-2-(1-cyclopropyl-1H-pyrazol-4-yl)-4-morpholinyl)-4-(4,4-difluorocyclohexyl)-6,7-dimethylpteridine], the EC50 is ≤ 50 nM; the “hTREM2 Emax” value was “+++ (Emax>150 and ≤250)”.

With `Cc1ccc(-c2nc([C@@H]3CCO[C@H](c4cnn(C)c4)C3)cc3nc(C)c(C)nc23)c(F)c1` [Example 258, 5-(2-fluoro-4-methylphenyl)-2,3-dimethyl-7-((2S,4R)-2-(1-methyl-1H-pyrazol-4-yl)tetrahydro-2H-pyran-4-yl)pyrido[3,4-b]pyrazine], the concentration for a half-maximal effect (EC50) is 500 to 3000 nM; the “hTREM2 Emax” value was “+++ (Emax>150 and ≤250)”.

On to `Cc1cc2cc(N3CCO[C@@H](c4cnn(C)c4)C3)nc(-c3ccc(Cl)cc3F)c2nc1C` [Example 237, (S)-4-(8-(4-chloro-2-fluorophenyl)-2,3-dimethyl-1,7-naphthyridin-6-yl)-2-(1-methyl-1H-pyrazol-4-yl)morpholine], for which the EC50 lay within 3000 to 100000 nM; the “hTREM2 Emax” value is “+++ (Emax>150 and ≤250)”.

For `Cc1nc2nc(N3CCO[C@@H](c4cnn(C)c4)C3)nc(C3CCC(Cl)CC3)c2nc1C` (mixture of isomers) [Example 165, 4-(trans-4-chlorocyclohexyl)-6,7-dimethyl-2-((2S)-2-(1-methyl-1H-pyrazol-4-yl)-4-morpholinyl) pteridine], the EC50 was ≤ 50 nM; the “hTREM2 Emax” value was “+++ (Emax>150 and ≤250)”.

With `Cc1ccc(-c2nc(N3CCO[C@@H](c4ccnc(C)c4)C3)nc3nc(C)cnc23)c(F)c1` [Example 10, 4-(2-fluoro-4-methylphenyl)-7-methyl-2-((2S)-2-(2-methyl-4-pyridinyl)-4-morpholinyl)pteridine], the half-maximal effective concentration (EC50) was ≤ 50 nM; the “hTREM2 Emax” value was “+++ (Emax>150 and ≤250)”.

As to `Cc1cc([C@H]2CN(c3nc(C45CC(C(F)(F)F)(C4)C5)c4nc(C)c(C)nc4n3)CCO2)ccn1` [Example 65], the EC50 was ≤ 50 nM; the “hTREM2 Emax” value is “+++ (Emax>150 and ≤250)”.

On to `Cc1ccc2c(-c3ccc(Cl)cc3F)nc(N3CCO[C@@H](c4cnc(C)nc4)C3)nc2n1` (single isomer, unassigned) [Example 90], for which the EC50 lay in the range of 50 to 500 nM; the “hTREM2 Emax” value was “+++ (Emax>150 and ≤250)”.

As for `Cc1cc([C@H]2CN(c3nc4nc(C)cnc4c([C@H]4C[C@@H](C(F)(F)F)C4)n3)CCO2)cnn1` [Example 280, (S)-4-(7-methyl-4-((1s,3R)-3-(trifluoromethyl)cyclobutyl)pteridin-2-yl)-2-(6-methylpyridazin-4-yl)morpholine], the 50% effective concentration (EC50) was 500 to 3000 nM; the “hTREM2 Emax” value is “+++ (Emax>150 and ≤250)”.

Turning to `Cc1cnc2c(-c3ccc(Cl)cc3F)nc(N3CCOC(C4CCOC4)C3)nc2n1` (stereo not shown) [Example 5, 4-(4-chloro-2-fluorophenyl)-7-methyl-2-(2-(tetrahydro-3-furanyl)-4-morpholinyl)pteridine], the EC50 lay within 500 to 3000 nM; the “hTREM2 Emax” value was “+++ (Emax>150 and ≤250)”.

As for `Cc1cc([C@@H]2CN(c3nc(-c4ccc(Cl)cc4F)c4cc(C)c(C)nc4n3)CCO2)cnn1` (single isomer, unassigned) [Example 105], the 50% effective concentration (EC50) was ≤ 50 nM and the “hTREM2 Emax” value was “++++ (Emax>250)”.

As for `Cc1ccc(-c2nc([C@H]3CCO[C@H](c4cnn(C)c4)C3)nc3nc(C)c(C)nc23)c(F)c1` [Example 264, 4-(2-fluoro-4-methylphenyl)-6,7-dimethyl-2-((2S,4S)-2-(1-methyl-1H-pyrazol-4-yl)tetrahydro-2H-pyran-4-yl)pteridine], the EC50 is 500 to 3000 nM and the “hTREM2 Emax” value is “++++ (Emax>250)”.

With `Cc1nc2nc([C@@H]3CCO[C@H](c4cnn(C)c4)C3)nc(-c3ccc(Cl)cc3F)c2nc1C` [Example 242, 4-(4-chloro-2-fluorophenyl)-6,7-dimethyl-2-((2S,4R)-2-(1-methyl-1H-pyrazol-4-yl)tetrahydro-2H-pyran-4-yl)pteridine], the EC50 was ≤ 50 nM; the “hTREM2 Emax” value is “+++ (Emax>150 and ≤250)”.

`Cc1cc([C@H]2CN(c3nc4nc(C)cnc4c([C@H]4C[C@H](C(F)(F)F)C4)n3)CCO2)ccn1` [Example 16, 7-methyl-2-((2S)-2-(2-methyl-4-pyridinyl)-4-morpholinyl)-4-(trans-3-(trifluoromethyl)cyclobutyl)pteridine]: the concentration for a half-maximal effect (EC50) is ≤ 50 nM; the “hTREM2 Emax” value was “+ (Emax>45 and ≤100)”.

Take `Cc1nc2nc(N3CCO[C@@H](c4cnn(C)c4)C3)nc(N3CCC(C)(C)CC3)c2nc1C` [Example 67, 4-(4,4-dimethyl-1-piperidinyl)-6,7-dimethyl-2-((2S)-2-(1-methyl-1H-pyrazol-4-yl)-4-morpholinyl)pteridine]: the EC50 is 50 to 500 nM; the “hTREM2 Emax” value is “+ (Emax>45 and ≤100)”.

Regarding `Cc1nc2nc(N3CCO[C@@H](c4cnn(C)c4)C3)nc(C3=CCCC3)c2nc1C` [Example 128, 4-(1-cyclopenten-1-yl)-6,7-dimethyl-2-((2S)-2-(1-methyl-1H-pyrazol-4-yl)-4-morpholinyl)pteridine], the concentration for a half-maximal effect (EC50) lay within 500 to 3000 nM; the “hTREM2 Emax” value was “+ (Emax>45 and ≤100)”.

The values above are taken from patent publication US11884675B2, “Heterocyclic compounds as triggering receptor expressed on myeloid cells 2 agonists and methods of use” (AMGEN INC., priority 2020, dated 2024).
